Values after ≈ are worked out from the molar mass of the structure shown.
Legend:
Human C5 = target: T1, Human C5 (Homo sapiens, UniProt P01031); assay: Red blood cell (RBC) hemolysis assay, luminescent (Example 13, Table 22); assay type: cell-based; conditions: sheep EA cells, […] C5-depleted human serum, 0.5 nM human C5, 1 hour 37° C., luminescence; note: 1.5% C5-depleted human serum
T1 construct: purchased Complement Technology
Text: Compound CU0136 is a racemic mixture of Compound CU0186 and CU0187. Numbers in parenthesis following compound numbers indicate alternate enantiomers (as distinguished by retention time during chromatographical separation).

[1] = Kinetic solubility in PBS pH 7.4, HPLC-UV (Example 21, Table 27); assay type: physicochemical; conditions: phosphate buffered saline, aqueous buffer, kinetic from dmso stock, 0.5 M PBS, shaken minimum 24 h at approximately 25° C., HPLC-UV 270 nm
Method: Compounds were analyzed for kinetic solubility values using a standard kinetic solubility assay format. First, test compounds were dissolved in DMSO (Aldrich Chemical Co., Milwaukee, Wis., USA) at a concentration of 0.010 mol/L and used to prepare standard calibrators in DMSO solution. 500.0 μM, 250.0 μM, 125.0 μM, 62.5 μM, 31.2 μM, and 15.6 μM standards were prepared in a Greiner UV-Star clear V-bottom 96-well plate (Greiner-Bio One, Germany) for generating a standard curve. Using Alfa Aesar's Sodium phosphate, 0.2 M buffer solution, pH 7.4 (Alfa Aesar, Haverhill, Mass., USA), aqueous phosphate buffered saline (PBS) was prepared by diluting with Milli-Q water for a final concentration of 0.05 M. The pH of the solution was adjusted to 7.4±0.1 using 0.1 M hydrochloric acid (Fisher Scientific Waltham, Mass., USA) or 0.1 M aqueous sodium hydroxide (Fisher Scientific Waltham, Mass., USA).
10 μL of 0.010 mol/L DMSO test compound stock solutions were pipetted to separate 1.5 mL centrifuge tubes in triplicate. To these tubes, 190 μl of 0.05 M PBS was added. Each tube was gently vortexed for 5 sec. The tubes were shaken for a minimum of 24 h at approximately 25° C. After shaking, the solutions were transferred to 0.5 mL centrifuge filter tubes (MilliporeSigma, Burlington, Mass., USA) and centrifuged at 10,000 rpm for 5 min. After centrifugation, supernatants were collected and used for compound concentration analysis.
Compound concentrations in each solution were determined using high pressure liquid chromatography (HPLC) with ultraviolet (UV) detection and comparison with external standards. For HPLC, a Waters Acquity CSH Phenyl-Hexyl column (2.1 mm×50 mm, 1.7 μm) was used together with a generic gradient method on a Waters H-class system equipped with a diode array detector: Solvent A=0.1% formic acid in water, Solvent B=0.1% formic acid in acetonitrile (MilliporeSigma, Burlington, Mass., USA), flow=0.65 mL/min, (t=0 min: 95% A-5% B, t=4.75 min: 0% A-100% B, t=4.85 min: 0% A-100% B, t=4.86 min: 95% A-5% B, t=5 min: 95% A-5% B). UV quantifications were performed at 270 nm. Solution concentrations were calculated using Microsoft Excel.

purified human C5 = purified human C5 (Homo sapiens, UniProt P01031); assay: Red blood cell (RBC) hemolysis assay, optical, absorbance 412 nm (Example 10, Table 19); assay type: cell-based; conditions: antibody-sensitized sheep erythrocytes, […] human C5 depleted sera, 0.5 nM purified human C5, absorbance 412 nm; read-out: RBC Hemolysis IC50
Sequence of purified human C5 (P01031 19-1676): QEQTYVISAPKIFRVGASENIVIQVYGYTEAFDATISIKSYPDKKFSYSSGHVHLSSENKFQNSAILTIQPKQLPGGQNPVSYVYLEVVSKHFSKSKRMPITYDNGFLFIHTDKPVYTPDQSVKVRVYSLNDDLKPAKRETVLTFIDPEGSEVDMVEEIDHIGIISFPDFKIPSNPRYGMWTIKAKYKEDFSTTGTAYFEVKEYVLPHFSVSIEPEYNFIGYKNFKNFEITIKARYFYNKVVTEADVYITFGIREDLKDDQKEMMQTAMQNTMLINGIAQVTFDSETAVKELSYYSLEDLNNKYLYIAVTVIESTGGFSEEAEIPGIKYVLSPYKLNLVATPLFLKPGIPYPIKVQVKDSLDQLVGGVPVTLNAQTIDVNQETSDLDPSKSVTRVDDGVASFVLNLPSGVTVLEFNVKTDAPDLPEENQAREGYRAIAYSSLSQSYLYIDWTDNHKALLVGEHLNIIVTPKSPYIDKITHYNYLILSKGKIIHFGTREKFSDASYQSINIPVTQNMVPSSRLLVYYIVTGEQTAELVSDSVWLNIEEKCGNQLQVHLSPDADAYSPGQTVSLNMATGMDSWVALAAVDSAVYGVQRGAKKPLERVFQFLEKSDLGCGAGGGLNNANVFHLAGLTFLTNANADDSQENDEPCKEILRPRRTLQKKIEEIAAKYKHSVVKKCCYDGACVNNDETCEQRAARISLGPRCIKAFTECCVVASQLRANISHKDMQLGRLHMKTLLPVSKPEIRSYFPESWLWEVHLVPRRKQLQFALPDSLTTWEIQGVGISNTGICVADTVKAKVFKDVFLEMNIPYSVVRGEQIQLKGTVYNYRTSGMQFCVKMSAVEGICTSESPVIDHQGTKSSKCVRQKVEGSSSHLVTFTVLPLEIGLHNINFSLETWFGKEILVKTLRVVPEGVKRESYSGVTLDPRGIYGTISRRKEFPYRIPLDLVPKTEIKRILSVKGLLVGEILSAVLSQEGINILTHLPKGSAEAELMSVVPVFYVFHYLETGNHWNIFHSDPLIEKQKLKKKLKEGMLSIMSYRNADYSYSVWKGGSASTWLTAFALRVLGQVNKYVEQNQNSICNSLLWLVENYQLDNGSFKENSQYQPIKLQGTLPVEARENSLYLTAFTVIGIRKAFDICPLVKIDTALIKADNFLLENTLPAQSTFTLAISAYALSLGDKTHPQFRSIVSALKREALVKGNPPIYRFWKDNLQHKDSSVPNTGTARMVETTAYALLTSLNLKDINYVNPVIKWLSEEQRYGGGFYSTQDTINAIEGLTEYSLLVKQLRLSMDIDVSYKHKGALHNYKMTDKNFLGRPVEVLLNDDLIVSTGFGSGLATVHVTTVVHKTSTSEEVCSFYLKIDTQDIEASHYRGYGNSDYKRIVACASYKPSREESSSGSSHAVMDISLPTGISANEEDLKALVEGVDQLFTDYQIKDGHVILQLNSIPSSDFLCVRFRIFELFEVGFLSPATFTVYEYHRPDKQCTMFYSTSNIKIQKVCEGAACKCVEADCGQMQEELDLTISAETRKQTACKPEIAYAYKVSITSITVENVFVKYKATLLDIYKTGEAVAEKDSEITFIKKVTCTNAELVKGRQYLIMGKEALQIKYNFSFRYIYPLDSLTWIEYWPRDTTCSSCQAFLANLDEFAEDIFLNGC

T1 sequence (P01031 19-1676): as above

Compound	IC50 (Human C5) [nM]	solubility kinetic [1] [µM]	IC50 (purified human C5) [nM]
COc1cc(CC(=O)N(C)C)ccc1CN1CCCN(c2ccc(OC)c(OCCC[C@H]3C[C@H]3C)c2)C1=O (racemic) [CU0226]	15.7	286 (≈ 150 µg/mL)	–
CCCCCOc1cc(N2CCCN(Cc3ccc(CC(=O)N4CCO[C@@H](CN(C)C)C4)cc3OC)C2=O)ccc1OC (stereo in doubt) [CU0186]	18.8	348 (≈ 208 µg/mL)	–
CCCCCOc1cc(N2CCCN(Cc3ccc(CC(=O)N4CCO[C@H](CN(C)C)C4)cc3OC)C2=O)ccc1OC (stereo in doubt) [CU0187]	14.8	417 (≈ 249 µg/mL)	–
COc1cc(CC(=O)NC2CCN(C(C)C)CC2)ccc1CN1CCCN(c2ccc(OC)c(OCCCC(C)(F)F)c2)C1=O [CU0141]	13.1	366 (≈ 231 µg/mL)	–
COc1ccc(F)cc1CN1CCCN(c2ccc(OC)c(OCCC3CCC3)c2)C1=O [CU0154]	22.6	58 (≈ 25.7 µg/mL)	–
CCCCCOc1cc(N2CCCN(Cc3ccc(CNC(=O)c4cocn4)cc3OC)C2=O)ccc1OC [CU0161]	22.9	77 (≈ 41.3 µg/mL)	–
COc1cc(CC(=O)N2CCOC(CN(C)C)C2)ccc1CN1CCCN(c2ccc(OC)c(OCCCC(C)(F)F)c2)C1=O (centres unmarked) [CU0170]	20.1	435 (≈ 275 µg/mL)	–
CCCCCOc1cc(N2CCCN(Cc3ccc(CC(=O)N4CCN=C(N(C)C)C4)cc3OC)C2=O)ccc1OC [CU0173]	11.4	368 (≈ 213 µg/mL)	–
CCC(F)(F)CCOc1cc(N2CCCN(Cc3ccc(CC(=O)N4CCOC(CN(C)C)C4)cc3OC)C2=O)ccc1OC (centres unmarked) [CU0175]	28.1	486 (≈ 308 µg/mL)	–
CCCCCOc1cc(N2CCCN(Cc3ccc(CC(=O)N(C)C4CCN(CC)C4)cc3OC)C2=O)ccc1OC (centres unmarked) [CU0177]	21.1	351 (≈ 204 µg/mL)	–
CCCCCOc1cc(N2CCCN(Cc3ccc(CCN4CCN(C)CC4)cc3OC)C2=O)ccc1OC [CU0178]	26.7	423 (≈ 228 µg/mL)	–
CCCCCOc1cc(N2CCCN(Cc3ccc(CC(N)=O)cc3OC)C2=O)ccc1OC [CU0188]	19.9	73 (≈ 34.3 µg/mL)	–
CCCCCOc1cc(N2CCCN(Cc3ccc(CCN4CCCCC4=O)cc3OC)C2=O)ccc1OC [CU0190]	41.4	139 (≈ 74.7 µg/mL)	–
CCCCCOc1cc(N2CCCN(Cc3ccc(CC(=O)N4CCO[C@H](COC)C4)cc3OC)C2=O)ccc1OC [CU0196]	21.1	> 500	–
CCCCCOc1cc(N2CCCN(Cc3ccc(CN)cc3OC)C2=O)ccc1OC [CU0201]	7.4	389 (≈ 172 µg/mL)	–
CCC(F)(F)CCOc1cc(N2CCCN(Cc3ccc(CC(=O)NC4CCN(C(C)C)CC4)cc3OC)C2=O)ccc1OC [CU0207]	13.1	415 (≈ 262 µg/mL)	–
CCCCCOc1cc(N2CCCN(Cc3ccc(Cc4nnnn4C)cc3OC)C2=O)ccc1OC [CU0211]	15.6	112 (≈ 57 µg/mL)	–
CCCCCOc1cc(N2CCCN(Cc3ccc(Cc4nnn(C)n4)cc3OC)C2=O)ccc1OC [CU0212]	23.6	52 (≈ 26.4 µg/mL)	–
COc1cc(CC(=O)N(C)C)ccc1CN1CCCN(c2ccc(OC)c(OCC[C@@H]3C[C@@H]4CC[C@H]3C4)c2)C1=O [CU0213]	20.4	17 (≈ 9.35 µg/mL)	–
COc1cc(CC(=O)N(C)C)ccc1CN1CCCN(c2ccc(OC)c(OCCCC(F)(F)C(F)(F)F)c2)C1=O [CU0214]	21.1	209 (≈ 123 µg/mL)	–
CCCCCOc1cc(N2CCCN(Cc3ccc(CC(=O)N4CCO[C@@H](COC)C4)cc3OC)C2=O)ccc1OC [CU0224]	15.4	466 (≈ 272 µg/mL)	–
CCCCCOc1cc(N2CCCN(Cc3cccc4c3ccn4CC(=O)N3CCN=C(N(C)C)C3)C2=O)ccc1OC [CU0239]	11.2	333 (≈ 196 µg/mL)	–
CCCCCOc1cc(N2CCCN(Cc3cccc4c3ccn4CC(=O)NC3CNC(=O)C3)C2=O)ccc1OC (centres unmarked) [CU0243]	5.5	< 10	–

Compound	IC50 (Human C5) [nM]	solubility kinetic [1] [µM]	IC50 (purified human C5) [nM]
CCCCCOc1cc(N2CCCN(Cc3cccc4c3ccn4CC(=O)NC3CCNC(=O)C3)C2=O)ccc1OC (centres unmarked) [CU0244]	6.7	200 (≈ 115 µg/mL)	–
CCCCCOc1cc(N2CCCN(Cc3cccc4c3ccn4CC(=O)NC3(C)COC3)C2=O)ccc1OC [CU0245]	12.2	142 (≈ 77.9 µg/mL)	–
CCCCCOc1cc(N2CCCN(Cc3cccc4c3ccn4CC(=O)N3CCN(C)C(=O)C3)C2=O)ccc1OC [CU0246]	10.6	287 (≈ 165 µg/mL)	–
CCCCCOc1cc(N2CCCN(Cc3cccc4c3ccn4CC(=O)N3CCOC(CN(C)C)C3)C2=O)ccc1OC (centres unmarked) [CU0247]	9.8	376 (≈ 228 µg/mL)	–
CCCCCOc1cc(N2CCCN(Cc3ccnc4c3ccn4CC(=O)NC3CCN(C(C)C)CC3)C2=O)ccc1OC [CU0255]	19.4	436 (≈ 264 µg/mL)	–
COc1ccc(N2CCCN(Cc3ccnc4c3ccn4CC(=O)N(C)C)C2=O)cc1OCCCC(F)(F)C(F)(F)F [CU0256]	62.7	22 (≈ 13.1 µg/mL)	–
CCCCCOc1cc(N2CCCN(Cc3ccnc4c3ccn4CC(=O)N(C)C3CCN(CC)C3)C2=O)ccc1OC (centres unmarked) [CU0257]	16	> 500	–
CCCCCOc1cc(N2CCCN(Cc3ccnc4c3c(C)cn4CC(=O)N(C)C)C2=O)ccc1OC [CU0258]	7.5	462 (≈ 241 µg/mL)	–
CCCCCOc1cc(N2CCCN(Cc3ccnc4c3ccn4CC(=O)N3CCO[C@@H](COC)C3)C2=O)ccc1OC [CU0260]	25	436 (≈ 259 µg/mL)	–
CCCCCOc1cc(N2CC[C@H](C)N(Cc3cccc4[nH]cc(Cl)c34)C2=O)ccc1OC [CU0623]	–	364 (≈ 171 µg/mL)	–
COc1cc(CCNC2CCN(C)C2=O)ccc1CN1CCCN(c2ccc(OC)c(OCCCC3CC3)c2)C1=O (centres unmarked) [CU0643]	–	> 500	–
CCCCCOc1cc(N2CCCN(Cc3ccnc4c3ccn4[C@@H]3CCN(C)C3=O)C2=O)ccc1OC [CU0667]	–	139 (≈ 72.2 µg/mL)	–
CCCCCOc1cc(N2CCCN(Cc3ccc(Cc4ccccn4)cc3OC)C2=O)ccc1OC [CU0672]	–	440 (≈ 222 µg/mL)	–
CCCCCOc1cc(N2CCCN(Cc3cncc4c3c(Cl)cn4CC(=O)N(C)C)C2=O)ccc1OC [CU0673]	–	11 (≈ 5.96 µg/mL)	–
CCCCCOc1cc(N2CCCN(Cc3ccc(CNC(=O)c4cnccn4)cc3OC)C2=O)ccc1OC [CU0677]	–	71 (≈ 38.9 µg/mL)	–
COc1ccc(NC(=O)NCc2cccc3ccsc23)cc1OCCCC(C)C [Compound C5INH-0294]	–	–	343
CNC(=O)c1cccc(CNC(=O)Nc2ccc(OC)c(OCCCC(C)C)c2)c1 [Compound C5INH-0319]	–	–	793
COc1ccc(N)cc1CNC(=O)Nc1ccc(OC)c(OCCCC(C)C)c1 [Compound C5INH-0321]	–	–	61
COc1ccc(NC(=O)NCc2ccc(CN3CCN(C)CC3)cc2)cc1OCCCC(C)C [Compound C5INH-0324]	–	–	551
COc1ccc(NC(=O)NCc2ccnc3c2ccn3CCN2CCOCC2)cc1OCCCC(C)C [Compound C5INH-0370]	–	–	209
COc1ccc(NC(=O)N2CCCC2c2ccccc2OC)cc1OCCCC(C)C (centres unmarked) [Compound C5INH-0371]	–	–	67.6
COc1ccc(NC(=O)NCc2ccnc3c2ccn3CCC(=O)O)cc1OCCCC(C)C [Compound C5INH-0399]	–	–	619

From patent US20230115176A1 (Ra Pharmaceuticals, Inc., priority 2019, published 2023)
